Test [1] relates to hypercholesterolemic rabbits. Put plainly: Organ chamber studies of isolated vessels from cholesterol-fed rabbits. It counts as in vivo, rabbit. The source says:
Study design: (See, Cooke et al., 1992, supra) Male New Zealand white rabbits (n=49) were assigned to one of three treatment groups: 10 were fed with normal rabbit chow for ten weeks (Control); 19 received chow enriched with 1% cholesterol (Chol); and 20 received a 1% cholesterol diet supplemented with 2.25% L-arginine hydrochloride in the drinking water (Arg.). […] Subsequently the animals were sacrificed and the left main coronary artery and the thoracic aorta were harvested for studies of vascular reactivity and histomorphometry. In some animals, blood was collected for studies of platelet and monocyte reactivity.
By contrast, NO-dependent relaxations were attenuated in vessels harvested from hypercholesterolemic animals with a reduction in the maximal response to acetylcholine. In comparison, vessels harvested from hypercholesterolemic animals receiving L-arginine supplementation had improved NO-dependent relaxation to acetylcholine. In a separate study, the effect of chronic arginine supplementation to improve NO-dependent relaxation was confirmed in the hypercholesterolemic rabbit abdominal aorta.

Test [2] relates to platelets. Put plainly: ADP-initiated platelet aggregation (nephelometry), platelets from treated rabbits. It counts as in vivo, rabbit. As to the method:
The effect of L-arginine supplementation on platelet reactivity in rabbits that had normal chow (Control; n=6), a 1% cholesterol diet (Chol; n=5), or a 1% cholesterol diet supplemented with oral arginine (Arg; n=6), as detailed above, was examined. Arterial blood obtained after central ear artery cannulation was anticoagulated with 13 mM sodium citrate. Platelet-rich suspension was prepared by washing platelets in calcium-free Krebs-Henseleit solution and resuspending them in Tyrode's solution with albumin. Aggregation was initiated by addition of adenosine diphosphate and monitored by standard nephelometric techniques. In platelets derived from Chol animals, aggregation was not different in rate or maximum extent in comparison to platelets from Control animals (A, in FIG. 2). By contrast, aggregation of platelets from Arg animals was reduced by 50% (B, in FIG. 2).
Therefore, the anti-platelet effect of chronic oral arginine administration can be credited to an increased synthesis of endogenous NO. Furthermore, NO synthesis may be induced in both the platelets and the endothelium.

Test [3] concerns platelets. Put plainly: Platelet aggregometry in hypercholesterolemic humans after oral L-arginine. It counts as in vivo, human. The source says: FIG. 13 is a set of histograms showing aggregation of platelets obtained in hypercholesterolemic humans (hc), and individuals with normal cholesterol levels (nc). Platelet aggregation ex vivo in response to adenosine diphosphate (ADP) is increased in hc individuals in comparison to normal individuals. […] (See Ex. 16)
In this study we tested the hypothesis that chronic L-arginine supplementation would inhibit platelet reactivity in hypercholesterolemic humans. Venous blood was collected from normal (NC; n=11) and hypercholesterolemic (HC; n=22) volunteers for isolation of platelet-rich plasma and aggregometry. […]

As for `N=C(N)NCCC[C@H](N)C(=O)O` [L-arginine], the “NO-independent responses: maximal response or sensitivity to norepinephrine or nitroglycerin” value in test [1] (differences between treatment groups) is given as “no differences”. Further, the “NO-dependent relaxation to acetylcholine” value in test [1] (vs hypercholesterolemic animals without supplement) is listed as “improved”. In addition, the “cGMP content in aggregated platelets” value in test [2] (arginine-treated animals) is “two-fold greater”. In addition, the “reduction of platelet aggregation” value in test [2] (platelets from Arg animals, adenosine diphosphate) is listed as 50%. The “platelet aggregation in response to ADP” value in test [3] (2 weeks of oral L-arginine) is on record as “attenuated”. In addition, the “aggregability of HC platelets” value in test [3] (two weeks, collagen 5 mg/ml) is reported as “reduced”.
